Assay results taken from US20190209501A1, “COMPOSITIONS AND METHODS OF USE OF BETA-HYDROXY-BETA-METHYLBUTYRATE (HMB) […] IN[…]” (Texas Tech University Office of Research Commercialization, priority 2018, published 2019).

How the values were obtained:
[1] = Isometric squat rate of force development (RFD); assay type: in vivo, human; set-up: RFD50 ms / RFD50 ms Δ / RFD100 ms / RFD100 ms Δ / RFD200 ms / RFD200 ms Δ / RFD30 ms / RFD30 ms Δ: unit not given here; settings: for RFD30 ms Δ / RFD30 ms Δ (%) / RFD50 ms Δ / RFD50 ms Δ (%) / RFD100 ms Δ / RFD100 ms Δ (%) / RFD200 ms Δ / RFD200 ms Δ (%): baseline to W 8; for RFD30 ms ES (d) / RFD50 ms ES (d) / RFD100 ms ES (d) / RFD200 ms ES (d): effect size
Method: Isometric and isokinetic squats were performed using a mechanized squat device (Exerbotics eSq, Tulsa, Okla., USA) (31, 32). At the first assessment, each participant's preferred foot positioning was determined using a custom grid overlaid on the foot platform of the squat device. This foot positioning was recorded and utilized for all visits. No weight belts, knee wraps, or other aids were utilized during testing. Prior to testing, the participant's range of motion for isokinetic testing was determined. The range of motion was set to 90° between the thigh and lower leg at the bottom of the repetition and approximately 170° at the top of the repetition, as determined by a goniometer. The isometric testing included maximal effort pushes at 120° and 150° knee angles. Each participant was instructed to push against the device as hard and fast as possible while attempting to complete a squat movement. Two isometric pushes were performed at each knee angle, and each effort lasted approximately 2 to 3 seconds. After the isometric testing, a 3-repetition maximum isokinetic force production test was completed. Prior to testing, participants observed the movement of the machine and received verbal instruction regarding proper performance of the assessment. Each of the repetitions during the maximal isokinetic force production test consisted of a 4-second eccentric phase, followed by an approximately half-second pause at the 90° knee position and a 4-second concentric phase. During testing, the force signal was sampled from the load cell at 1 kHz (MP100; Biopac Systems, Inc, Santa Barbara, Calif., USA), stored on a personal computer, and processed off-line using custom-written software (LabVIEW, Version 11.0; National Instruments, Austin, Tex., USA). The scaled force signal was low-pass filtered, with a 10-Hz cutoff (zero-phase lag, fourth-order Butterworth filter). All subsequent analyses were conducted on the scaled and filtered force signal. For the isometric force production tests, the rate of force development (RFD) over specific time intervals (i.e. 30, 50, 100 and 200 ms) was calculated by manually specifying the onset of force production within the custom LabVIEW program. For each repetition of the maximum isokinetic force production test, isokinetic peak forces (PF) were determined as the highest mean 25-ms epoch for both concentric and eccentric testing (i.e. PFCONC and PFECC).

[2] = Percent body fat by underwater weighing, HMB without intermittent fasting (Panton et al.); assay type: in vivo, human; settings: 3 g/d Calcium-HMB without intermittent fasting + RT
Method: In an earlier study described in Panton et al. (54) trained and untrained females (n=18, 27±2.1 y, 62.3±2.2 kg) were randomized to 3 g/d Calcium-HMB without intermitted fasting. The HMB only group completed 4 weeks of supervised resistance training and trained three times per week. Body composition was measured before and after the 4 weeks of training using underwater weighing procedures (55). Percent body fat (BF %) was estimated from the Siri equation^5.

CC(C)(O)CC(=O)O [TRFHMB, β-hydroxy-β-methylbutyrate]
RFD30 ms ([1]; ITT, knee angle 120°, Baseline): 1638 ± 411
RFD50 ms ([1]; ITT, knee angle 120°, Baseline): 2017 ± 472
RFD100 ms ([1]; ITT, knee angle 120°, Baseline): 2621 ± 719
RFD200 ms ([1]; ITT, knee angle 120°, Baseline): 3661 ± 503
RFD30 ms ([1]; ITT, knee angle 120°, W 4): 2131 ± 457
RFD50 ms ([1]; ITT, knee angle 120°, W 4): 2760 ± 506
RFD100 ms ([1]; ITT, knee angle 120°, W 4): 3451 ± 759
RFD200 ms ([1]; ITT, knee angle 120°, W 4): 4121 ± 475
RFD30 ms ([1]; ITT, knee angle 120°, W 8): 2606 ± 494
RFD50 ms ([1]; ITT, knee angle 120°, W 8): 3153 ± 510
RFD100 ms ([1]; ITT, knee angle 120°, W 8): 4205 ± 774
RFD200 ms ([1]; ITT, knee angle 120°, W 8): 4332 ± 472
RFD30 ms Δ ([1]; ITT, knee angle 120°): 969
RFD30 ms Δ (%) ([1]; ITT, knee angle 120°): 59%
RFD50 ms Δ ([1]; ITT, knee angle 120°): 1135
RFD50 ms Δ (%) ([1]; ITT, knee angle 120°): 56%
RFD100 ms Δ ([1]; ITT, knee angle 120°): 1585
RFD100 ms Δ (%) ([1]; ITT, knee angle 120°): 60%
RFD200 ms Δ ([1]; ITT, knee angle 120°): 671
RFD200 ms Δ (%) ([1]; ITT, knee angle 120°): 18%
RFD30 ms ES (d) ([1]; ITT, knee angle 120°): 0.59
RFD50 ms ES (d) ([1]; ITT, knee angle 120°): 0.64
RFD100 ms ES (d) ([1]; ITT, knee angle 120°): 0.59
RFD200 ms ES (d) ([1]; ITT, knee angle 120°): 0.38
RFD30 ms ([1]; ITT, knee angle 150°, Baseline): 1922 ± 471
RFD50 ms ([1]; ITT, knee angle 150°, Baseline): 2203 ± 703
RFD100 ms ([1]; ITT, knee angle 150°, Baseline): 2694 ± 825
RFD200 ms ([1]; ITT, knee angle 150°, Baseline): 3163 ± 491
RFD30 ms ([1]; ITT, knee angle 150°, W 4): 2612 ± 420
RFD50 ms ([1]; ITT, knee angle 150°, W 4): 2989 ± 482
RFD100 ms ([1]; ITT, knee angle 150°, W 4): 3567 ± 750
RFD200 ms ([1]; ITT, knee angle 150°, W 4): 3511 ± 447
RFD30 ms ([1]; ITT, knee angle 150°, W 8): 2851 ± 469
RFD50 ms ([1]; ITT, knee angle 150°, W 8): 3208 ± 468
RFD100 ms ([1]; ITT, knee angle 150°, W 8): 3944 ± 754
RFD200 ms ([1]; ITT, knee angle 150°, W 8): 3876 ± 443
RFD30 ms Δ ([1]; ITT, knee angle 150°): 929
RFD30 ms Δ (%) ([1]; ITT, knee angle 150°): 48%
RFD50 ms Δ ([1]; ITT, knee angle 150°): 1004
RFD50 ms Δ (%) ([1]; ITT, knee angle 150°): 46%
RFD100 ms Δ ([1]; ITT, knee angle 150°): 1251
RFD100 ms Δ (%) ([1]; ITT, knee angle 150°): 46%
RFD200 ms Δ ([1]; ITT, knee angle 150°): 713
RFD200 ms Δ (%) ([1]; ITT, knee angle 150°): 23%
RFD30 ms ES (d) ([1]; ITT, knee angle 150°): 0.53
RFD50 ms ES (d) ([1]; ITT, knee angle 150°): 0.45
RFD100 ms ES (d) ([1]; ITT, knee angle 150°): 0.42
RFD200 ms ES (d) ([1]; ITT, knee angle 150°): 0.41
RFD30 ms ([1]; PP, knee angle 120°, Baseline): 1669 ± 662
RFD50 ms ([1]; PP, knee angle 120°, Baseline): 2016 ± 758
RFD100 ms ([1]; PP, knee angle 120°, Baseline): 2642 ± 1153
RFD200 ms ([1]; PP, knee angle 120°, Baseline): 4079 ± 688
RFD30 ms ([1]; PP, knee angle 120°, W 4): 2267 ± 723
RFD50 ms ([1]; PP, knee angle 120°, W 4): 3028 ± 787
RFD100 ms ([1]; PP, knee angle 120°, W 4): 3845 ± 1195
RFD200 ms ([1]; PP, knee angle 120°, W 4): 4636 ± 648
RFD30 ms ([1]; PP, knee angle 120°, W 8): 2917 ± 675
RFD50 ms ([1]; PP, knee angle 120°, W 8): 3470 ± 675
RFD100 ms ([1]; PP, knee angle 120°, W 8): 4629 ± 1111
RFD200 ms ([1]; PP, knee angle 120°, W 8): 4824 ± 569
RFD30 ms Δ ([1]; PP, knee angle 120°): 1248
RFD30 ms Δ (%) ([1]; PP, knee angle 120°): 75%
RFD50 ms Δ ([1]; PP, knee angle 120°): 1454
RFD50 ms Δ (%) ([1]; PP, knee angle 120°): 72%
RFD100 ms Δ ([1]; PP, knee angle 120°): 1987
RFD100 ms Δ (%) ([1]; PP, knee angle 120°): 75%
RFD200 ms Δ ([1]; PP, knee angle 120°): 745
RFD200 ms Δ (%) ([1]; PP, knee angle 120°): 18%
RFD30 ms ES (d) ([1]; PP, knee angle 120°): 0.71
RFD50 ms ES (d) ([1]; PP, knee angle 120°): 0.77
RFD100 ms ES (d) ([1]; PP, knee angle 120°): 0.66
RFD200 ms ES (d) ([1]; PP, knee angle 120°): 0.45
RFD30 ms ([1]; PP, knee angle 150°, Baseline): 2121 ± 770
RFD50 ms ([1]; PP, knee angle 150°, Baseline): 2420 ± 1187
RFD100 ms ([1]; PP, knee angle 150°, Baseline): 3072 ± 1377
RFD200 ms ([1]; PP, knee angle 150°, Baseline): 3441 ± 708
RFD30 ms ([1]; PP, knee angle 150°, W 4): 2845 ± 625
RFD50 ms ([1]; PP, knee angle 150°, W 4): 3274 ± 715
RFD100 ms ([1]; PP, knee angle 150°, W 4): 3940 ± 1178
RFD200 ms ([1]; PP, knee angle 150°, W 4): 3613 ± 634
RFD30 ms ([1]; PP, knee angle 150°, W 8): 3177 ± 622
RFD50 ms ([1]; PP, knee angle 150°, W 8): 3572 ± 604
RFD100 ms ([1]; PP, knee angle 150°, W 8): 4346 ± 1070
RFD200 ms ([1]; PP, knee angle 150°, W 8): 4237 ± 558
RFD30 ms Δ ([1]; PP, knee angle 150°): 1056
RFD30 ms Δ (%) ([1]; PP, knee angle 150°): 50%
RFD50 ms Δ ([1]; PP, knee angle 150°): 1152
RFD50 ms Δ (%) ([1]; PP, knee angle 150°): 48%
RFD100 ms Δ ([1]; PP, knee angle 150°): 1274
RFD100 ms Δ (%) ([1]; PP, knee angle 150°): 41%
RFD200 ms Δ ([1]; PP, knee angle 150°): 796
RFD200 ms Δ (%) ([1]; PP, knee angle 150°): 23%
RFD30 ms ES (d) ([1]; PP, knee angle 150°): 0.57
RFD50 ms ES (d) ([1]; PP, knee angle 150°): 0.46
RFD100 ms ES (d) ([1]; PP, knee angle 150°): 0.39
RFD200 ms ES (d) ([1]; PP, knee angle 150°): 0.47
BF % 4-week effect size (d) [2]: −0.15
